One test concerns NMDAR. Details: method as in PMID 1372086. The following applies: read-out: reported EC50; cited from earlier work.
A further test has as its target GluN1/GluN3B receptors (Mus musculus, UniProt Q91ZU9). The test is described as follows: Two-electrode voltage clamp of recombinant NMDARs in Xenopus laevis oocytes (GluN3B). The following applies: for maximum block by tauro-CDC / IC50: n = 6; for IC50: read-out: mean IC50 for tauro-CDC.
The target in test [1] is AMPA receptor GluA1/GluA2 (Rattus norvegicus, UniProt P19490+P19491). The test can be described thus: Two-electrode voltage clamp of AMPA receptor in Xenopus laevis oocytes. In kind it is cell-based. The following applies: 100 µM CDC; n = 6. The text has this: (§1) The resulting EC50 or IC50 values were averaged.
AMPA receptor GluA1/GluA2, sequence (P19490 19-907): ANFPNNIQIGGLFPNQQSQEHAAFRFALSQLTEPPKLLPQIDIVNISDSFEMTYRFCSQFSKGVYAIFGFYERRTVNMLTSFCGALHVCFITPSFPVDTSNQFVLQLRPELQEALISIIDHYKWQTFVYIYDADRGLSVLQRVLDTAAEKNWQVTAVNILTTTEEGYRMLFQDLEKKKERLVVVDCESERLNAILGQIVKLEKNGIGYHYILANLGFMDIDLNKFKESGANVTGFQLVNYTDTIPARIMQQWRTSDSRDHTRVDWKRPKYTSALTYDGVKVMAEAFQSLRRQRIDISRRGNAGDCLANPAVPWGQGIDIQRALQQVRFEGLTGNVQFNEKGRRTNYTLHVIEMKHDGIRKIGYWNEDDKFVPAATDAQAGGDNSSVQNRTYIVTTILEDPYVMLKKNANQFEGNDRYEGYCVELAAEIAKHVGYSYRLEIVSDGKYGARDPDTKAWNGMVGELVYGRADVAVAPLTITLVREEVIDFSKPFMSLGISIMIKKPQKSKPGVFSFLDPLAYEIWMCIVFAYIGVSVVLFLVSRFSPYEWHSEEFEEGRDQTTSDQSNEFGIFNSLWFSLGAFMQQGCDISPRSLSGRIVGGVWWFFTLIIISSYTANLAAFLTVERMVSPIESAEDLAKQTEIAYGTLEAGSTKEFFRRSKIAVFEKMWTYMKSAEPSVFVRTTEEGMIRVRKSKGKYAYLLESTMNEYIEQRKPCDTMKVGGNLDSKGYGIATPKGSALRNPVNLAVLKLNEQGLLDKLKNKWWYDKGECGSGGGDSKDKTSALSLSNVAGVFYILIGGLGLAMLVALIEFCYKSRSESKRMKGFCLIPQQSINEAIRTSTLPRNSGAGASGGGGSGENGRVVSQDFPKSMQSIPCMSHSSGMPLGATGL
AMPA receptor GluA1/GluA2, sequence (P19491 22-883): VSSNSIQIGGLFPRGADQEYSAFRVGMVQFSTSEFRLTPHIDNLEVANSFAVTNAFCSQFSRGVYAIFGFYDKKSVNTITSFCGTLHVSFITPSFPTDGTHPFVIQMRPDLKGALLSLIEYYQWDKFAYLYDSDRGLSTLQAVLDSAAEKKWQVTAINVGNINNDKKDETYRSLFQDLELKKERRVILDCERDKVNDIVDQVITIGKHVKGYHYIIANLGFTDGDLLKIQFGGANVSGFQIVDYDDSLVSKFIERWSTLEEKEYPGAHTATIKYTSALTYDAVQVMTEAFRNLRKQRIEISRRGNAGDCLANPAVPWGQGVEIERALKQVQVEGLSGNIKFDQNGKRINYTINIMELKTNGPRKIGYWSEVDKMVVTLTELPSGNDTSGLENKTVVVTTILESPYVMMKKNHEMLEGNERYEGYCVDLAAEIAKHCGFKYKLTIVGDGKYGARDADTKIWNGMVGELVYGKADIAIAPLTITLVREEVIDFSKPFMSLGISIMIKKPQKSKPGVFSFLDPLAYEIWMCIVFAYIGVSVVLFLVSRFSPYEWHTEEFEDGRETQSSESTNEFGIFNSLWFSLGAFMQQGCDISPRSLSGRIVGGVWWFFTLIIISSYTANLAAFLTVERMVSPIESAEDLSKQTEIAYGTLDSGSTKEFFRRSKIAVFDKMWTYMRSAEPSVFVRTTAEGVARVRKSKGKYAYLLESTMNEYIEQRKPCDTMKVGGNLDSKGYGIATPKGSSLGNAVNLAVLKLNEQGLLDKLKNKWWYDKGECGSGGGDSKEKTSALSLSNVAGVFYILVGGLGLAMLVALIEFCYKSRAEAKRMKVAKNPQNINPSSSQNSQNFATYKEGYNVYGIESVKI
Another test concerns the target kainate receptor GluK2 (Rattus norvegicus, UniProt P42260). The test is described as follows: Two-electrode voltage clamp of kainate receptor in Xenopus laevis oocytes. It is filed as cell-based. The following applies: 100 µM CDC; after block of desensitization with ConA; n = 3.
Excerpt: as §1

A further test addresses GluN3B Ser701 to Ala (Mus musculus, UniProt Q91ZU9, S701A). The test can be described thus: Two-electrode voltage clamp of GluN3B point mutant Ser701 to Ala in oocytes. Conditions: for Increase in block for the mutant compared with wild type: 100 µM bile salt, n = 11–13. In kind it is cell-based.
Excerpt: as §1

A further test has as its target GluN3B Tyr505 to Ala (Mus musculus, UniProt Q91ZU9, Y505A). Conditions: n = 9.
The next test concerns uninjected oocytes. The test can be described thus: Agonist application to uninjected oocytes. In kind it is cell-based, Xenopus laevis. The following applies: n = 3.
Excerpt: as §1

The target of another test is GluN1/GluN2D receptors (Rattus norvegicus, UniProt P35439+Q62645). The test can be described thus: Two-electrode voltage clamp of recombinant NMDARs in Xenopus laevis oocytes (GluN2D). Conditions: for IC50: read-out: IC50 Tauro-CDC.
GluN1/GluN2D receptors, sequence (Q62645 28-1323, other chains not shown): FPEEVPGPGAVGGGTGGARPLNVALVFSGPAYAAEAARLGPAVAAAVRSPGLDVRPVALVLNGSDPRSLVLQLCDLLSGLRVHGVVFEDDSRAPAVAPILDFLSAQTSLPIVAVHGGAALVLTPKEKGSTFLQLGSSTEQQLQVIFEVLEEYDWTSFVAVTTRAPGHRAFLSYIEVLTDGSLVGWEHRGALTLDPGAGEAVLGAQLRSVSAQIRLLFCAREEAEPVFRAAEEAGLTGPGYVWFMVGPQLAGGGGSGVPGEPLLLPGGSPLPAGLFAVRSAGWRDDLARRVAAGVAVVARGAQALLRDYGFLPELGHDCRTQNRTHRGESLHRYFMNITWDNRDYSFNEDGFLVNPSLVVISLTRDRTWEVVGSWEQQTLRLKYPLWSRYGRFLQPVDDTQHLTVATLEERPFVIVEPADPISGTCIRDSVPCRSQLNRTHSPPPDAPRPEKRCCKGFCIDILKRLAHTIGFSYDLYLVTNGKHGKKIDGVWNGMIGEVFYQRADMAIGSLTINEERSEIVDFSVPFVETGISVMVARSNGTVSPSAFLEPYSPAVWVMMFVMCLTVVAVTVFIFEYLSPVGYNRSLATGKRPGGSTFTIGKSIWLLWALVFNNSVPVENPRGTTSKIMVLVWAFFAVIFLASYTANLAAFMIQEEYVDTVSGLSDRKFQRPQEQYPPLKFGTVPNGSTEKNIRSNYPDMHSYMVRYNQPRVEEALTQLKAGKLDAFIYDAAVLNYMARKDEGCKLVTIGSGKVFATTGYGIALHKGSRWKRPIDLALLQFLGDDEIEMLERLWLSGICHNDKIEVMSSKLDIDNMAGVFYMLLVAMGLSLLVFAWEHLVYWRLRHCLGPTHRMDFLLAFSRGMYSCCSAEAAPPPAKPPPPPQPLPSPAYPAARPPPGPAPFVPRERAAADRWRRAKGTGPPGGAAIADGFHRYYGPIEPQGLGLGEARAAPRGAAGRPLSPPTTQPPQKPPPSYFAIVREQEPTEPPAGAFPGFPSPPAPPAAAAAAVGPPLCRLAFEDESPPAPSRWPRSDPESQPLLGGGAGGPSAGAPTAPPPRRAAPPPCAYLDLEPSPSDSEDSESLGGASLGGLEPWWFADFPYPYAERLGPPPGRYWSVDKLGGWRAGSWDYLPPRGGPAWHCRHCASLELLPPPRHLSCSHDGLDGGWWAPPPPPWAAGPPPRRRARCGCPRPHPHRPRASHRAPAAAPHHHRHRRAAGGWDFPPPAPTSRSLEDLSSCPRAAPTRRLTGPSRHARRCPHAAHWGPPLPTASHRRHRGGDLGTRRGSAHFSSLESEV

Like-named read-outs stand apart in the source and are kept apart here.

GluN1/GluN3B receptors, sequence (Q91ZU9 25-1003, other chains not shown): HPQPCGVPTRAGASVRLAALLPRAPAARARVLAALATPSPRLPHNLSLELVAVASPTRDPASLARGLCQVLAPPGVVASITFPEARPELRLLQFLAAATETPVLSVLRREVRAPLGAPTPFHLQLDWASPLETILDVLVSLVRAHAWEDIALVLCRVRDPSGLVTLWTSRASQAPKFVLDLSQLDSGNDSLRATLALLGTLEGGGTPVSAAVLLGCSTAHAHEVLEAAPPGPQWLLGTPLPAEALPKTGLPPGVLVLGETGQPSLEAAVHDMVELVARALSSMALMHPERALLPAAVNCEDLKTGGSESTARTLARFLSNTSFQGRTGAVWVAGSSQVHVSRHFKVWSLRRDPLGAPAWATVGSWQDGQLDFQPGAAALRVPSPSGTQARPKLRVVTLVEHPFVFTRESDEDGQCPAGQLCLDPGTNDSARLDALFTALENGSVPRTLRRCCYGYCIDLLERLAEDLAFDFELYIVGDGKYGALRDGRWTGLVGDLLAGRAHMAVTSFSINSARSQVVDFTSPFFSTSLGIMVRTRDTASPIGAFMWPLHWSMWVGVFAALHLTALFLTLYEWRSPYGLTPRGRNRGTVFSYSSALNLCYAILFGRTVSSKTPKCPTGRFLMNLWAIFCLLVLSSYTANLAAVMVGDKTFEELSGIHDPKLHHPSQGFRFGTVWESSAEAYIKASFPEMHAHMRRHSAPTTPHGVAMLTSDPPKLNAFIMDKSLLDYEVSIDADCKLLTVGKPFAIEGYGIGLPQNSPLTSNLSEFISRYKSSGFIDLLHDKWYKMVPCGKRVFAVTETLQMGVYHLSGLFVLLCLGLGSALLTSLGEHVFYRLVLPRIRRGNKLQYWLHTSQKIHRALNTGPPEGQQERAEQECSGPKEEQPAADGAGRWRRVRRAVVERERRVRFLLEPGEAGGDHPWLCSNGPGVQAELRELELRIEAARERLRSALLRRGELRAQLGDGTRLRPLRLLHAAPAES
GluN3B Ser701 to Ala, sequence (Q91ZU9 25-1003 S701A, other chains not shown): as the sequence (Q91ZU9 25-1003, other chains not shown) above, with S677A counted along it
kainate receptor GluK2, sequence (P42260 32-908): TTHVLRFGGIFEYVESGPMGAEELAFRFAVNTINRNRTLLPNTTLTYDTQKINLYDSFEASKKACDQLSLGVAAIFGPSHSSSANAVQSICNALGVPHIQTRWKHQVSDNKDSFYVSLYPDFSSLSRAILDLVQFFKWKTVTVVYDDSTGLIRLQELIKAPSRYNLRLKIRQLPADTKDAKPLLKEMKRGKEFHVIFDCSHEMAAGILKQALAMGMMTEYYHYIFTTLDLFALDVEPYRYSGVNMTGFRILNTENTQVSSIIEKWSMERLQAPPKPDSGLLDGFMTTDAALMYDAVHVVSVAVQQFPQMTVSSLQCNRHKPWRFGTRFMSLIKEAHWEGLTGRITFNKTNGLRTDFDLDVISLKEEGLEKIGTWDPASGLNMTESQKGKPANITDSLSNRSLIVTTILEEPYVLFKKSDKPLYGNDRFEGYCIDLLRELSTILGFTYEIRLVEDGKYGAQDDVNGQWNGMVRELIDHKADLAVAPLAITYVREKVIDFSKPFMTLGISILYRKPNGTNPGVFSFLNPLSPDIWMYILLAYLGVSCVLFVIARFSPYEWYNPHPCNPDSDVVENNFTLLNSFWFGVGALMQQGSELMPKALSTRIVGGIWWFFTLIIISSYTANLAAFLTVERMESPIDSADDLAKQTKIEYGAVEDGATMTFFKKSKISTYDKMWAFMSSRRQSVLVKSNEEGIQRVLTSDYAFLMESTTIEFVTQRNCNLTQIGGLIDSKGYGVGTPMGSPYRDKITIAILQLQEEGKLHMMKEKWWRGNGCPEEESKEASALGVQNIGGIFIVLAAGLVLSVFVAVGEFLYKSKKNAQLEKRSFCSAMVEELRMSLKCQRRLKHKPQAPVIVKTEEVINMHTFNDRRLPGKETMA
GluN3B Tyr505 to Ala, sequence (Q91ZU9 25-1003 Y505A, other chains not shown): as the sequence (Q91ZU9 25-1003, other chains not shown) above, with Y481A counted along it
Excerpt for GluN1/GluN2D receptors: (§2) The cDNAs coding for NMDA and kainate receptors, subcloned into pSGEM for expression in Xenopus laevis oocytes, were kindly provided by Michael Hollmann (Ruhr University Bochum). AMPA receptor cDNAs were inserted in pGEM-HE for cRNA synthesis. The following cDNAs were used: GluN1-1a (U08261), GluN2A (NM_012573), GluN2B (NM_012574), GluN2D (U08260), GluN3B (NM_130455), GluK2 (NM_019309), GluA1 (NM_031608) and GluA2 (M38061). These cDNAs are from rat except for GluN3B, which is from mouse. Point mutants were generated by polymerase chain reaction (PCR)-directed mutagenesis with specific mismatch primers (biomers.net). cRNA was synthesized from 1 µg of linearized plasmid DNA using an in vitro transcription kit (mMESSAGE mMACHINE® T7 Transcription Kit, Thermo Fisher Scientific).
(§3) Oocytes were obtained from parts of the ovaries surgically removed from Xenopus laevis in accordance with German law and approved by the local authorities of the Heinrich Heine University of Düsseldorf. Lumps of around 20 oocytes were incubated with 10 mg/ml collagenase type 2 (Worthington Biochemical Corporation) for 1–1.5 h in Ca^2+-free Barth’s solution (in mM: 88 NaCl, 1 KCl, 2.4 NaHCO3, 0.82 MgSO4, 20 HEPES, pH adjusted to 7.5 with NaOH) with slow agitation to remove the follicular cell layer and then washed extensively with Barth’s solution containing Ca^2+ (in mM: 88 NaCl, 1 KCl, 2.4 NaHCO3, 0.82 MgSO4, 0.41 CaCl2, 0.33 Ca(NO3)2, 20 HEPES, pH adjusted to 7.5 with NaOH) to inactivate the collagenase. Oocytes were maintained in Barth’s solution charged with antibiotic and antimycotic solution (containing penicillin, streptomycin and amphotericin B, Sigma-Aldrich) at 18 °C. Alternatively, Xenopus laevis oocytes were purchased from EcoCyte Bioscience (Castrop-Rauxel, Germany). Within 24 h after surgery, oocytes of stages V-VI were injected with 3.8 ng GluN1 and 5 ng GluN2A or GluN2B cRNAs, 7.6 ng GluN1 and 10 ng GluN2D cRNA or 7.6 ng GluN1 and 6.4 ng GluN3B-cRNA per oocyte (molecular GluN1 to GluN2 ratio: 1:1; GluN1 to GluN3 ratio: 1:1) using a Micro4 nanoliter injector (World Precision Instruments, Sarasota, FL, USA).
(§4) Two-electrode voltage clamp recordings of oocyte current responses were performed 3–5 days after cRNA injection at −70 mV holding potential with a Turbo Tec-03X amplifier (npi electronic, Germany) controlled by Pulse software (HEKA, Germany). Electrodes were filled with 3 M KCl and had resistances of 0.5–1.5 MΩ. […] Agonists and bile salts were applied for 20–40 s by superfusion. Agonist and bile salt blocker potencies were determined by recording current responses induced by the application of increasing agonist concentrations or increasing bile salt concentration to the same oocyte. Agonist-induced currents were normalized to the maximum response under saturating agonist concentration. In case of inhibition by bile salts the relative reduction in agonist-induced current was determined. Data from each oocyte was fitted separately to the Hill equation using Origin 9 software. The resulting EC50 or IC50 values were averaged. Current-voltage relationships were determined by ramping the holding potential from −140 mV to +50 mV corrected for background conductivities. Data are reported as mean ± standard error of the mean (SEM). Statistical significance was determined using the unpaired, two-tailed Student’s t-test.
Excerpt for GluN1/GluN3B receptors: as §2, §3, §4
Experimental for GluN3B Tyr505 to Ala: AMPA receptor cDNAs were inserted in pGEM-HE for cRNA synthesis. The following cDNAs were used: GluN1-1a (U08261), GluN2A (NM_012573), GluN2B (NM_012574), GluN2D (U08260), GluN3B (NM_130455), GluK2 (NM_019309), GluA1 (NM_031608) and GluA2 (M38061). These cDNAs are from rat except for GluN3B, which is from mouse. Point mutants were generated by polymerase chain reaction (PCR)-directed mutagenesis with specific mismatch primers (biomers.net). cRNA was synthesized from 1 µg of linearized plasmid DNA using an in vitro transcription kit (mMESSAGE mMACHINE® T7 Transcription Kit, Thermo Fisher Scientific). […]
Two-electrode voltage clamp recordings of oocyte current responses were performed 3–5 days after cRNA injection at −70 mV holding potential with a Turbo Tec-03X amplifier (npi electronic, Germany) controlled by Pulse software (HEKA, Germany). […] Agonist and bile salt blocker potencies were determined by recording current responses induced by the application of increasing agonist concentrations or increasing bile salt concentration to the same oocyte. […] In case of inhibition by bile salts the relative reduction in agonist-induced current was determined. […] Current-voltage relationships were determined by ramping the holding potential from −140 mV to +50 mV corrected for background conductivities. […] Statistical significance was determined using the unpaired, two-tailed Student’s t-test.

On to `N[C@@H](CCS(=O)(=O)O)C(=O)O` [L-HCA, L-homocysteic acid], for which the EC50 in the test on NMDAR was 13 µM. In addition, the “Activation of GluN3B by agonist” value at GluN1/GluN3B receptors (concentrations of up to 1 mM, n = 4) is on record as “could not be activated”.

For the compound `C[C@H](CCC(=O)O)[C@H]1CC[C@H]2[C@@H]3[C@H](O)C[C@@H]4C[C@H](O)CC[C@]4(C)[C@H]3CC[C@]12C` [CDC, chenodeoxycholate], the “Reduction of GluA1/GluA2 currents” value in test [1] was determined as 7 ± 1%. Also, the “Inhibition of glutamate-induced steady-state GluK2 current” value on kainate receptor GluK2 is given as “no inhibition”. Further, on GluN3B Ser701 to Ala, the “Increase in block for the mutant compared with wild type” value is reported as 15%.

With `NCC(=O)O` [Gly, glycine], the “Activation of mutant receptor by agonist” value on GluN3B Tyr505 to Ala was “could not be activated”. The glycine-induced currents is recorded as 106 ± 12 nA at GluN3B Ser701 to Ala (Ser701 to Ala mutant, n = 29) and 835 ± 85 nA at GluN1/GluN3B receptors (wild type, n = 30).

Take `O=C(O)c1cccnc1C(=O)O` [QN, quinolinic acid]: the EC50 in the test with NMDAR is 7200 µM. In addition, in the test with uninjected oocytes, the “Effect on uninjected oocytes” value is “no effect”.

`C[C@H](CCC(=O)NCCS(=O)(=O)O)[C@H]1CC[C@H]2[C@@H]3[C@H](O)C[C@@H]4C[C@H](O)CC[C@]4(C)[C@H]3CC[C@]12C` [Tauro-CDC]: the “Increase in block for the mutant compared with wild type” value on GluN3B Ser701 to Ala is given as 15%. Besides, the “max. block by Tauro-CDC” value on GluN1/GluN2D receptors (10 µM Gly, 0.51 µM Glu) was 100 ± 4 (11) %; on GluN1/GluN2D receptors (10 µM Gly, 150 µM Glu), 87 ± 3 (13) %; at GluN1/GluN2D receptors ([…] Gly, 150 µM Glu), 98 ± 3 (8) %. Besides, the “Block of L-HCA-induced GluN2D currents” value at GluN1/GluN2D receptors (100 µM tauro-CDC, L-HCA 13 µM, 10 µM glycine co-agonist, n = 12) came to 30 ± 2%. Moreover, at GluN1/GluN2D receptors (100 µM tauro-CDC, QN 1 mM, 10 µM glycine co-agonist, n = 7), the “Inhibition of QN-induced GluN2D currents” value is given as 29 ± 2%. On GluN1/GluN2D receptors (100 µM tauro-CDC, QN 7.2 mM, 10 µM glycine co-agonist, n = 7), the “Reduction of QN-induced GluN2D currents” value is on record as 26 ± 2%. The “Effect in the absence of NMDAR agonists (partial agonist action)” value on GluN1/GluN2D receptors (100 µM tauro-CDC, n = 4) is on record as “no effects”; on GluN1/GluN3B receptors (100 µM tauro-CDC, n = 4), “no effects”. The “Effect on I/V relationship and reversal potential of agonist-induced currents” value at GluN1/GluN2D receptors (100 µM tauro-CDC, n = 10–11) is reported as “did neither change the shape of I/V relationships nor did it shift the reversal potentials”; at GluN1/GluN3B receptors (100 µM tauro-CDC, n = 10–11) it was “did neither change the shape of I/V relationships nor did it shift the reversal potentials”. The IC50 at GluN1/GluN2D receptors (10 µM Gly, 0.51 µM Glu) was found to be 137 ± 8 µM; at GluN1/GluN2D receptors (10 µM Gly, 150 µM Glu (saturating agonist concentration)), 179 ± 11 µM; on GluN1/GluN2D receptors ([…] Gly, 150 µM Glu), 153 ± 8 µM; at GluN1/GluN3B receptors (in the presence of 5 μM glycine), 44 ± 7 µM; on GluN1/GluN3B receptors (in the presence of 10 μM glycine), 83 ± 8 µM. In addition, the entries for the “maximum block by tauro-CDC” value at GluN1/GluN3B receptors (5 μM glycine) and at GluN1/GluN3B receptors (10 μM glycine) were 92 ± 3% and 95 ± 3%, respectively. The “Reduction of QN-induced GluN3B currents” value on GluN1/GluN3B receptors (tauro-CDC 100 µM, QN 7.2 mM, n = 5) was “about 68 ± 4%”.

Take `N[C@@H](CCC(=O)O)C(=O)O` [Glu, glutamate]: the “max. Glu-induced current [normalized]” value is given as 1.00 ± 0.17 (7) at GluN1/GluN2D receptors (10 µM Gly) and 0.25 ± 0.06 (7) at GluN1/GluN2D receptors (10 µM Gly + 180 µM Tauro-CDC).

Source of the values: paper PMC6624251, “Isoform-specific Inhibition of N-methyl-D-aspartate Receptors by Bile Salts” (Scientific Reports, 2019).
